Test results: patent US20200179392A1, “Idelalisib for Treating Proliferative Vitreoretinopathy and Abnormal Intraocular Neovascularization” (priority 2016, published 2020)

Test system: PDGFRβ/PI3Kδ/Akt
Assay: Western blot of vitreous-induced Akt activation restored by mutant PDGFRβ (βΔx) in PDGFRβ-silent RPEM cells
Type: cell-based, human
Conditions: PDGFRβ-silent RPEM cells expressing βΔx; NAC 10 mM, SU6656 1 μM
Protocol: 2B. Serum-deprived RPEM cells as defined were treated with RV or PDGF-B for 30 minutes and their lysates were analyzed with indicated antibodies. This is a representative of three independent experiments. βΔx: a truncated PDGFRβ without the PDGF-binding domain. NAC: N-acetyl-cysteine (10 mM), a scavenger of reactive oxygen species (ROS), SU: SU6656 (1 μM), a specific inhibitor of Src family kinases (SFKs).
To make the retrovirus, the pLXSHD-PDGFRβΔx construct was transfected into 293GPG cells with reagent (Lipofectamine 2000; Invitrogen). Virus containing medium was collected for 5 days and then was concentrated (25,000g, 90 minutes, 4° C.). RPEM cells deficient for PDGFRβ were infected by incubation with the concentrated retrovirus in DMEM supplemented with 10% FBS and 8 μg/mL polybrene (hexadimethrine bromide; Sigma) for 24 hours. Successfully infected cells were selected in histidine-free DMEM supplemented with 2 mM L-histidinol dihydrochoride (Sigma, St. Louis, Mo.). Resultant cell lines were termed RPEMPAx; the level of the truncated PDGFRPAx was determined by Western blot analysis with an antiPDGFRβ antibody that recognizes the receptor's intracellular domain.
Cells grown to 90% confluence in wells of 24-well plates were serum starved for 24 hours, and then treated with appropriated agents. […] Signal intensity was determined by densitometry using NIH imageJ software^24, 44, 50.

| Compound | effect on restoration of vitreous-induced activation of Akt by mutant PDGFRβ |
| --- | --- |
| CN(C)S(=O)(=O)c1ccc2c(c1)/C(=C/c1cc3c([nH]1)CCCC3)C(=O)N2 [SU6656] | prevented |
| CC(=O)N[C@@H](CS)C(=O)O [N-acetyl-cysteine] | prevented |
